Measured values from PubChem BioAssay AID1033 (Sanford-Burnham Center for Chemical Genomics, 2008).
pKd: −log10 of the molar value. Active and inactive are the calls of the source. The rule behind the calls is not given here.

What follows are compounds tested against Chaperone protein DnaK (Escherichia coli (strain K12)) (UniProt P0A6Y8) (assay: E. coli DnaK SBD ligand binding – biophysical, NMR, chaperone (AID 1033)). Conditions: Purified DnaK SBD.
Chaperone protein DnaK (Escherichia coli (strain K12)), sequence (P0A6Y8 whole entry, looked up): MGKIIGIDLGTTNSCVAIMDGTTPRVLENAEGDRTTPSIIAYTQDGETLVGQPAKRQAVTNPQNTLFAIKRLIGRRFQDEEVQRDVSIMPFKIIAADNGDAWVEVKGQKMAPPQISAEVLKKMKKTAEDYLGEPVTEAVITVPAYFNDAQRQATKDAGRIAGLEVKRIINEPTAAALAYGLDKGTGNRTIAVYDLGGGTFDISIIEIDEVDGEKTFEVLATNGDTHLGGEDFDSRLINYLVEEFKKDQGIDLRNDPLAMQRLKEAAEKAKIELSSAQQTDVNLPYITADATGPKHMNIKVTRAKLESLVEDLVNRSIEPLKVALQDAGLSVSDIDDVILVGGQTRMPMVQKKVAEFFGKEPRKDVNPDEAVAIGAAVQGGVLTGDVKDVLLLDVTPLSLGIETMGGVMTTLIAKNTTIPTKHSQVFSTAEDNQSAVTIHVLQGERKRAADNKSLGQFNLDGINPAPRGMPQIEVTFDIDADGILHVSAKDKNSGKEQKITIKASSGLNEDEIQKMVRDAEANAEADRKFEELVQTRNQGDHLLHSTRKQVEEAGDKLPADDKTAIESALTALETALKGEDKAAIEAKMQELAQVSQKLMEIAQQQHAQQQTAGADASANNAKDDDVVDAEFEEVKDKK
In the case of `Cn1cnnc1SCCCNC(=O)Nc1ncccn1`, the Kd was > 4 mM (inactive). With `CNC(=S)Nc1ccc(C(=O)O)cc1` the Kd was > 4 mM (inactive). With `Cc1cn2c(-c3cccnc3)nnc2s1` the Kd was > 4 mM (inactive). `C[C@@H](N)[C@@H](O)c1ccccc1` was tested, and the Kd was > 4 mM (inactive). For `OCC(O)C(O)C(O)CO` (stereo unspecified), the Kd was > 4 mM (inactive). In the case of `O=C1c2ccccc2C(=O)N1/N=C/c1ccc[nH]1`, the Kd was > 4 mM (inactive). With `O=C(c1ccc2c(c1)OCO2)N1CCC2(CC1)OCCO2` the Kd was > 4 mM (inactive). In the case of `Nc1cc(=O)[nH]c(SCC(=O)Nc2nccs2)n1`, the Kd was > 4 mM (inactive). For `O=C(O)c1cnc2sc3ccccc3n2c1=O`, the Kd was > 4 mM (inactive). In the case of `CC(C)c1ccccc1NC(=O)c1cnccn1`, the Kd was > 4 mM (inactive). With `Cc1nc2ccccc2c(=O)n1NC(=O)C1CCCCC1` the Kd was > 4 mM (inactive). `CNC(=O)C(=O)Nc1cccc(Cl)c1` was tested, and the Kd was > 4 mM (inactive). For `Cc1cc(=O)n2[nH]c(C)cc2n1`, the Kd was > 4 mM (inactive). In the case of `Cc1nc2cc(Cl)ccc2n1CCO`, the Kd was > 4 mM (inactive). With `CSc1nc(O)cc(=O)[nH]1` the Kd was > 4 mM (inactive). With `COC(=O)c1ccc(C(=S)N2CCOCC2)cc1` the Kd was > 4 mM (inactive). `CN1CCN(C(=O)c2ccco2)CC1` was tested, and the Kd was > 4 mM (inactive). For `Nc1ccc(N2CCOCC2)cc1`, the Kd was > 4 mM (inactive). In the case of `CC1(C)CC2C1CCC1(C)OC1CCC2(C)O` (stereo unspecified), the Kd was > 4 mM (inactive). With `COc1cccc(NC(=O)c2nc3ncccn3n2)c1` the Kd was > 4 mM (inactive). With `CC(=O)c1sc2nc(N)nn2c1C` the Kd was > 4 mM (inactive). For `O=C(O)Cc1nc(-c2ccncc2)n[nH]1`, the Kd was > 4 mM (inactive). `NC(=O)CS(=O)(=O)c1ccc2ccccc2c1` was tested, and the Kd was > 4 mM (inactive). For `COc1ccc(C[C@H]2NC[C@H](O)[C@H]2OC(C)=O)cc1`, the Kd was > 4 mM (inactive). In the case of `Cc1ccccc1NC(=O)C1CC(=O)N=C(N)S1` (stereo unspecified), the Kd was > 4 mM (inactive). In the case of `C=C(C)C1Cc2c(ccc(C(=O)O)c2O)O1` (stereo unspecified), the Kd was > 4 mM (inactive). `COc1cc(C(C)=O)ccc1OC(=O)N1CCOCC1` was tested, and the Kd was > 4 mM (inactive). With `CC1(O)CC2C=CC1C2` (stereo unspecified) the Kd was > 4 mM (inactive). `Cn1cnc2c(Cl)ncnc21` was tested, and the Kd was > 4 mM (inactive). With `COCC(=O)Nc1ccc(C)c(Cl)c1` the Kd was > 4 mM (inactive). With `Cc1cc(NS(=O)(=O)Cc2ccccc2)no1` the Kd was > 4 mM (inactive). `Cc1nnc(NCCN2CCOCC2)[nH]c1=O` was tested, and the Kd was > 4 mM (inactive). In the case of `CC(=O)Nc1c(C#N)c(C(C)(C)C)cn1C`, the Kd was > 4 mM (inactive). With `O=c1nc(NCc2ccco2)sc2ncccc12` the Kd was > 4 mM (inactive). `CC1(C)CC[C@]2(C(=O)O)CC[C@]3(C)C(=CCC4[C@@]5(C)CC[C@H](O)[C@@](C)(CO)C5CC[C@]43C)C2C1` (stereo partly specified) was tested, and the Kd was > 4 mM (inactive). `CC(C)c1c(O)c(-c2cc3c(c(C(C)C)c2O)CCC2C(C)(C)CCC[C@]32C)cc2c1CCC1C(C)(C)CCC[C@]21C` (stereo partly specified) was tested, and the Kd was > 4 mM (inactive). With `C/C=C(\C)C(=O)O[C@H]1C[C@@H](OC(C)=O)[C@@]2(C(=O)OC)CO[C@@H]3C2[C@]12CO[C@](O)(C(=O)OC)[C@H]2[C@](C)(C12O[C@@]1(C)[C@H]1C[C@@H]2OC2OC=C[C@@]21O)[C@@H]3O` (stereo partly specified) the Kd was > 4 mM (inactive). With `COc1c(C(=O)N2CCCC2)ccc2ccccc12` the Kd was > 4 mM (inactive). For `OCc1ccc2c(c1)OCO2`, the Kd was > 4 mM (inactive). In the case of `CSc1ccccc1NC(=O)c1ccc(C)o1`, the Kd was > 4 mM (inactive). `O=C(NCc1ccccc1Br)c1cccs1` gave a pKd greater than 3.70. In the case of `Cc1occc1C(=O)N1CCC2(CC1)OCCO2`, the Kd was > 4 mM (inactive). `CC(=O)Oc1ccc(/C=C/c2cc(OC(C)=O)cc(OC(C)=O)c2)cc1` was tested, and the Kd was > 4 mM (inactive). `NC12CC3CC(C1)CC(O)(C3)C2` was tested, and the Kd was > 4 mM (inactive). For `N[C@@H](C(=O)O)[C@@H](O)[C@H](O)[C@H](O)CO`, the Kd was > 4 mM (inactive). `CCCCCC/C=C\CCCCCCCc1cccc(O)c1C(=O)O` was tested, and the Kd was > 4 mM (inactive). For `FC(F)(F)c1nnc2ccc(N3CCOCC3)nn12`, the Kd was > 4 mM (inactive). `Cc1cc(=O)[nH]c(N)n1` was tested, and the Kd was > 4 mM (inactive). With `Cc1cc(=O)c2c(O)cc(O)c(C)c2o1` the Kd was > 4 mM (inactive). `O=C(c1cccc(-n2cnnn2)c1)N1CCOCC1` was tested, and the Kd was > 4 mM (inactive). In the case of `Nc1nncn1C(=O)c1c(Cl)cccc1Cl`, the Kd was > 4 mM (inactive). `CC1(C)CC(=O)c2cnn(-c3nc4ccccc4[nH]3)c2C1` was tested, and the Kd was > 4 mM (inactive). For `CC(=O)Nc1ccc(S(=O)(=O)NC(N)=O)cc1`, the Kd was > 4 mM (inactive). With `COc1ccccc1C(=O)Nc1ccccn1` the Kd was > 4 mM (inactive). In the case of `NC(=O)c1cccc(Cl)n1`, the Kd was > 4 mM (inactive). For `C1CCN2C[C@@H]3C[C@H](CN4CCCC[C@@H]34)[C@H]2C1`, the Kd was > 4 mM (inactive).
